Consider one compound from patent US8772268B2, “Bisphosphonamidate prodrugs and uses thereof” (The Johns Hopkins University, priority 2010, dated 2014).

Common to all, as to assay: NCI-60 DTP Human Tumor Cell Line Screen
What all share (format): cell-based

In one assay the test system is A549/ATCC. The conditions noted are these: Non-Small Cell Lung Cancer, 48 h.
The next assay has as its system CAKI-1. The conditions noted are these: CAKI-1, Renal Cancer, 48 h.
For the next assay, the system named is OVCAR-8. The conditions noted are these: OVCAR-8, Ovarian Cancer, 48 h.
A further assay has as its system ACHN. The conditions noted are these: Renal Cancer, 48 h.
The test system of the next assay is SK-MEL-5. The conditions noted are these: SK-MEL-5, Melanoma, 48 h.
A further assay relates to HCT-116. The conditions noted are these: HCT-116, Colon Cancer, 48 h.
For the next assay, the system named is OVCAR-3. The conditions noted are these: OVCAR-3, Ovarian Cancer, 48 h.

`CN(CCCCCl)P(=O)(OCc1ccc([N+](=O)[O-])cc1)C(Cl)(Cl)P(=O)(OCc1ccc([N+](=O)[O-])cc1)N(C)CCCCCl` (stereo not drawn) [compound 14]: the Log10GI50 in the assay with A549/ATCC is listed as −5.37; with CAKI-1, −5.54; in the assay on OVCAR-8, −5.38; in the assay with ACHN, −5.49; with SK-MEL-5, −5.69; with HCT-116, −5.58. The compound further showed a Log10GI50 in the assay with OVCAR-3 of −5.40. The Log10LC50 is above −4.00 in the assay with A549/ATCC; above −4.00 in the assay on CAKI-1; above −4.00 in the assay on OVCAR-8; above −4.00 with ACHN; −5.05 in the assay with SK-MEL-5; above −4.00 in the assay with HCT-116. Further, the Log10LC50 in the assay on OVCAR-3 is on record as above −4.00. Further, the Log10TGI in the assay with A549/ATCC was above −4.00; with CAKI-1 it was above −4.00; in the assay with OVCAR-8, above −4.00; with ACHN, above −4.00; with SK-MEL-5, −5.37; in the assay with HCT-116, above −4.00. For the same compound, the Log10TGI with OVCAR-3 is on record as above −4.00.
